Assay results reported in ChEMBL document CHEMBL6109104, “Synthesis and antibacterial evaluations of novel vancomycin analogues targeting bacteria membrane to combat Gram-negative infections” (Eur J Med Chem, 2025).

What was measured:
Assay type in all cases: functional
Conditions in all cases: time 16-18 hrs
Acinetobacter baumannii [1] = test: Antibacterial activity against Acinetobacter baumannii ATCC19606 incubated for 16 to 18 hrs by muller hinton broth based microplate reader analysis
Escherichia coli [2] = test: Antibacterial activity against Escherichia coli ATCC25922 incubated for 16 to 18 hrs by muller hinton broth based microplate reader analysis
Escherichia coli [3] = test: Antibacterial activity against Escherichia coli ATCC35150 incubated for 16 to 18 hrs by muller hinton broth based microplate reader analysis
Acinetobacter baumannii [4] = test: Antibacterial activity against Acinetobacter baumannii ATCC17978 incubated for 16 to 18 hrs by muller hinton broth based microplate reader analysis
Staphylococcus aureus [5] = test: Antibacterial activity against methicillin-resistant Staphylococcus aureus USA300 incubated for 16 to 18 hrs by muller hinton broth based microplate reader analysis
Staphylococcus aureus [6] = test: Antibacterial activity vancomycin-intermediate resistant Staphylococcus aureus incubated for 16 to 18 hrs by muller hinton broth based microplate reader analysis

Row | Compound | MIC (Acinetobacter baumannii [1]) [µg/mL] | MIC (Escherichia coli [2]) [µg/mL] | MIC (Escherichia coli [3]) [µg/mL] | MIC (Acinetobacter baumannii [4]) [µg/mL] | MIC (Staphylococcus aureus [5]) [µg/mL] | MIC (Staphylococcus aureus [6]) [µg/mL]
1 | CCCCCCCCCCCCCC[n+]1ccc(C(=O)NCCNC(=O)[C@H]2NC(=O)[C@H]3NC(=O)[C@H](NC(=O)[C@@H]4NC(=O)[C@H](CC(N)=O)NC(=O)[C@H](NC(=O)[C@@H](CC(C)C)NC)[C@H](O)c5ccc(c(Cl)c5)Oc5cc4cc(c5O[C@@H]4O[C@H](CO)[C@@H](O)[C@H](O)[C@H]4O[C@H]4C[C@](C)(N)[C@H](O)[C@H](C)O4)Oc4ccc(cc4Cl)[C@H]3O)c3ccc(O)c(c3)-c3c(O)cc(O)cc32)cc1.[Br-] (stereo in doubt) | > 128 | > 128 | > 128 | > 128 | 4 | 64
2 | CN[C@H](CC(C)C)C(=O)N[C@H]1C(=O)N[C@@H](CC(N)=O)C(=O)N[C@H]2C(=O)N[C@H]3C(=O)N[C@H](C(=O)N[C@H](C(=O)O)c4cc(O)cc(O)c4-c4cc3ccc4O)[C@H](O)c3ccc(c(Cl)c3)Oc3cc2cc(c3O[C@@H]2O[C@H](CO)[C@@H](O)[C@H](O)[C@H]2O[C@H]2C[C@](C)(NC(=O)CCCCCCCCCCC[n+]3cccc(NC(=O)OC(C)(C)C)c3)[C@H](O)[C@H](C)O2)Oc2ccc(cc2Cl)[C@H]1O.[Br-] | > 128 | > 128 | > 128 | > 128 | 4 | > 128
3 | CN[C@H](CC(C)C)C(=O)N[C@H]1C(=O)N[C@@H](CC(N)=O)C(=O)N[C@H]2C(=O)N[C@H]3C(=O)N[C@H](C(=O)N[C@H](C(=O)O)c4cc(O)cc(O)c4-c4cc3ccc4O)[C@H](O)c3ccc(c(Cl)c3)Oc3cc2cc(c3O[C@@H]2O[C@H](CO)[C@@H](O)[C@H](O)[C@H]2O[C@H]2C[C@](C)(NC(=O)CCCCCCCCCCC[n+]3cccc(C(C)=O)c3)[C@H](O)[C@H](C)O2)Oc2ccc(cc2Cl)[C@H]1O.[Br-] | > 128 | > 128 | > 128 | > 128 | 4 | 64
4 | CN[C@H](CC(C)C)C(=O)N[C@H]1C(=O)N[C@@H](CC(N)=O)C(=O)N[C@H]2C(=O)N[C@H]3C(=O)N[C@H](C(=O)N[C@H](C(=O)O)c4cc(O)cc(O)c4-c4cc3ccc4O)[C@H](O)c3ccc(c(Cl)c3)Oc3cc2cc(c3O[C@@H]2O[C@H](CO)[C@@H](O)[C@H](O)[C@H]2O[C@H]2C[C@](C)(NC(=O)CCCCCCCCC[n+]3ccc(C)cc3)[C@H](O)[C@H](C)O2)Oc2ccc(cc2Cl)[C@H]1O.[Br-] | > 128 | > 128 | > 128 | > 128 | 8 | > 128
5 | CCCCCCCCCCCCCC[N+]1(C)CCN(C(=O)[C@H]2NC(=O)[C@H]3NC(=O)[C@H](NC(=O)[C@@H]4NC(=O)[C@H](CC(N)=O)NC(=O)[C@H](NC(=O)[C@@H](CC(C)C)NC)[C@H](O)c5ccc(c(Cl)c5)Oc5cc4cc(c5O[C@@H]4O[C@H](CO)[C@@H](O)[C@H](O)[C@H]4O[C@H]4C[C@](C)(N)[C@H](O)[C@H](C)O4)Oc4ccc(cc4Cl)[C@H]3O)c3ccc(O)c(c3)-c3c(O)cc(O)cc32)CC1.[Br-] (stereo in doubt) | 32 | 32 | 32 | 32 | 1 | 32
6 | CN[C@H](CC(C)C)C(=O)N[C@H]1C(=O)N[C@@H](CC(N)=O)C(=O)N[C@H]2C(=O)N[C@H]3C(=O)N[C@H](C(=O)N[C@H](C(=O)O)c4cc(O)cc(O)c4-c4cc3ccc4O)[C@H](O)c3ccc(c(Cl)c3)Oc3cc2cc(c3O[C@@H]2O[C@H](CO)[C@@H](O)[C@H](O)[C@H]2O[C@H]2C[C@](C)(NC(=O)CCCCCCCCCCC[n+]3ccccc3)[C@H](O)[C@H](C)O2)Oc2ccc(cc2Cl)[C@H]1O.[Br-] | > 128 | > 128 | > 128 | > 128 | 4 | 64
